Assay results taken from publication PMC2033546, “Effects of somatostatin analogue RC-160 and bombesin/gastrin-releasing peptide antagonists on the growth of human small-cell and non-small-cell lung carcinomas in nude mice” (British Journal of Cancer, 1994).
Where no end group is shown, it is not given here. [ ]: non-standard residue; d: D form.

Assays:
[1] = tested on: SCLC H69 tumours; test: Histology (mitosis, apoptosis, necrosis) of SCLC H69 tumours; type: in vivo, human (xenograft in nude mice); details: Table II, Experiment I (SCLC H69); control 0.96 ? 0.1; means ? s.e.; *P < 0.05 vs control
Excerpt: (§1) Br. J. Cancer (1994). 70, 886 892 ? Macmillan Press Ltd.. […] Bombesin GRP antagonists. […] Lung carcinoma is the leading cause of cancer-related deaths in the western world. It is estimated that in 1992 there were approximately 168,000 new cases of lung cancer in the US and that about 146,000 deaths occurred from this disease (Boring et al., 1992). […] The growth factors such as bombesin/gastrin-releasing pep- tide (GRP), epidermal growth factor, (EGF), transforming growth factor a (TGF-x) and insulin-like growth factor I(IGF-I) appear to play a role in the proliferation and pro- gression of lung cancer (Cuttitta et al., 1985; Veale et al., 1987; Minuto et al., 1988; Siegfried & Owens, 1988; Macaulay et al., 1990; Tateishi et al., 1991; Damstrup et al., 1992; Sethi & Rozengurt, 1992; Rabiasz et al., 1992; Moody & Cuttitta, 1993). […] Tpi is 2,3,4,9-tetrahydro- Correspondence: A.V. Schally (151). VA Medical Center, 1601 Per- dido Street. New Orleans, LA 70146. USA. Received 1 March 1994; and in revised form 5 July 1994. Br. J. Cancer (1994), 70, 886-892 C Macmillan Press Ltd., 1994 PEPTIDE ANALOGUES IN LUNG CANCER 8U7 lH-pyrido [3,4bjindol-3-carboxylic acid, a conformationally constrained secondary amine derivate of tryptophan and Tac is thiazolidine-4-carboxylic acid. […] Animals Male athymic NCr nulmu nude mice, approximately 6 weeks old on arrival, were obtained from the NCI (Bethesda, MD, USA) and maintained under pathogen-limited conditions. Cell lines The human SCLC cell line NCI-H69, was obtained from the American Type Cell Culture (ATCC), Rockville, MD, USA and the non-SCLC cell line NCI-H157, from Dr H. Oie, NCI-Navy Medical Oncology Branch, Bethesda, MD, USA. These cell lines were cultured in RPMI-1640 medium supple- mented with 4 mM L-glutamine, 50 units ml-I penicilln G sodium, SOigml-' streptomycin sulphate, 0.125pgml-' amphotericin B and 10% fetal bovine serum at 3TC in a humidified 95% air/5% carbon dioxide atmosphere. CeLs were passaged weekly and routinely monitored for myco- plasma contamination using a detection kit (Boehringer- Mannheim, Mannheim, Germany). All culture media com- ponents were purchased from Gibco (Grand Island, NY, USA). Receptor assays Preparation of membranes for receptor studies was described previously (Halmos et al., 1993). Iodinated EGF and IGF-I were purchased from Amersham (Arlington Heights, IL, USA). Radioiodination of other peptides and receptor bind- ing of EGF, IGF-I, somatostatin and bombesin/GRP were performed as previously described (Srkalovic et al., 1989; Szepeshazi et al., 1992). Complete displacement assays on tumour membranes were done only once because of the shortage of tumour material. The LIGAND PC computerised curve-fitting programme of Munson and Rodbard (1980) was used to determine the types of receptor binding, dissociation constant (Kd) values, and the maximal binding capacity (BDj) of receptors. In order to determine the specificity of the binding sites for radiolabelled EGF, IGF-I, somatostatin and bombesin to lung cancer membranes, various structuraly related and unrelated peptides were tested for their ability to inhibit the binding of the tracers. Histological procedure The histological procedures were the same as described previously (Szepeshazi et al., 1991, 1992). The number of mitotic and apoptotic cells per 1,000 cells was determined, and the percentage area of necrosis in tumour sections was examined using the point-counting method (Szepeshazi et al., 1991, 1992), in which the crossing points of an ocular net that coincide with necrosis in various sections are counted. Radiommunoassays Serum levels of growth hormone were determined by double- antibody radioimmunoassay (RIA) using materials supplied by the National Hormone and Pituitary Program of the National Institute of Diabetes and Digestive and Kidney Diseases (NIDDK).

[2] = Serum growth hormone (GH) radioimmunoassay in nude mice; type: in vivo
Excerpt: Br. J. Cancer (1994). 70, 886 892 ? Macmillan Press Ltd.. […] Bombesin GRP antagonists. […] Lung carcinoma is the leading cause of cancer-related deaths in the western world. It is estimated that in 1992 there were approximately 168,000 new cases of lung cancer in the US and that about 146,000 deaths occurred from this disease (Boring et al., 1992). […] CeLs were passaged weekly and routinely monitored for myco- plasma contamination using a detection kit (Boehringer- Mannheim, Mannheim, Germany). […] The number of mitotic and apoptotic cells per 1,000 cells was determined, and the percentage area of necrosis in tumour sections was examined using the point-counting method (Szepeshazi et al., 1991, 1992), in which the crossing points of an ocular net that coincide with necrosis in various sections are counted. Radiommunoassays Serum levels of growth hormone were determined by double- antibody radioimmunoassay (RIA) using materials supplied by the National Hormone and Pituitary Program of the National Institute of Diabetes and Digestive and Kidney Diseases (NIDDK).

[3] = Serum gastrin radioimmunoassay in nude mice; type: in vivo; details: both experiments, after chronic treatment, vs controls
[4] = tested on: human SCLC cell line H69; test: [3H]Thymidine incorporation assay in H69 cells; type: cell-based; details: for [3H]Thymidine incorporation: Table V, mean s.e.
Excerpt: as §1

[5] = tested on: Bombesin/GRP receptors in membranes of SCLC H69 tumours; test: Bombesin/GRP receptor binding on H69 tumour membranes after in vivo treatment; set-up: species or system human; details: Table IV, Experiment I (SCLC-H69); tumour membranes after in vivo treatment; control 420; done once
Excerpt: as §1, with “In order to determine the specificity of the binding sites for radiolabelled EGF, IGF-I, somatostatin and bombesin to lung cancer membranes, various structuraly related and unrelated peptides were tested for their ability to inhibit the binding of the tracers. Histological procedure The histological procedures were the same as described previously (Szepeshazi et al., 1991, 1992).” left out

[6] = tested on: IGF-I receptors in membranes of SCLC H69 tumours; test: IGF-I receptor binding on H69 tumour membranes after in vivo treatment; set-up: species or system human; details: Table IV, Experiment I (SCLC-H69), control 294, done once
Excerpt: as §1, with “Receptor assays Preparation of membranes for receptor studies was described previously (Halmos et al., 1993). Iodinated EGF and IGF-I were purchased from Amersham (Arlington Heights, IL, USA). Radioiodination of other peptides and receptor bind- ing of EGF, IGF-I, somatostatin and bombesin/GRP were performed as previously described (Srkalovic et al., 1989; Szepeshazi et al., 1992). Complete displacement assays on tumour membranes were done only once because of the shortage of tumour material. The LIGAND PC computerised curve-fitting programme of Munson and Rodbard (1980) was used to determine the types of receptor binding, dissociation constant (Kd) values, and the maximal binding capacity (BDj) of receptors. In order to determine the specificity of the binding sites for radiolabelled EGF, IGF-I, somatostatin and bombesin to lung cancer membranes, various structuraly related and unrelated peptides were tested for their ability to inhibit the binding of the tracers. Histological procedure The histological procedures were the same as described previously (Szepeshazi et al., 1991, 1992).” left out

[7] = tested on: human SCLC cell line NCI-H69; test: Growth of H69 SCLC xenografts in nude mice; type: in vivo, human (xenograft in male athymic nude mice)
Excerpt: as §1

[8] = tested on: EGF receptors in membranes of non-SCLC H157 tumours; test: EGF receptor binding on H157 tumour membranes after in vivo treatment; set-up: species or system human
Excerpt: as §1, with “Receptor assays Preparation of membranes for receptor studies was described previously (Halmos et al., 1993). Iodinated EGF and IGF-I were purchased from Amersham (Arlington Heights, IL, USA). Radioiodination of other peptides and receptor bind- ing of EGF, IGF-I, somatostatin and bombesin/GRP were performed as previously described (Srkalovic et al., 1989; Szepeshazi et al., 1992). Complete displacement assays on tumour membranes were done only once because of the shortage of tumour material. The LIGAND PC computerised curve-fitting programme of Munson and Rodbard (1980) was used to determine the types of receptor binding, dissociation constant (Kd) values, and the maximal binding capacity (BDj) of receptors. In order to determine the specificity of the binding sites for radiolabelled EGF, IGF-I, somatostatin and bombesin to lung cancer membranes, various structuraly related and unrelated peptides were tested for their ability to inhibit the binding of the tracers. Histological procedure The histological procedures were the same as described previously (Szepeshazi et al., 1991, 1992).” left out

[9] = tested on: non-SCLC cell line NCI-H157; test: Growth of H157 non-SCLC xenografts in nude mice; type: in vivo, human (xenograft in male athymic nude mice); details: RC-160 100 µg/day, RC-3095 20 µg/day
Excerpt: as §1

[10] = tested on: EGF receptors in membranes of SCLC H69 tumours; test: EGF receptor binding on H69 tumour membranes after in vivo treatment; set-up: species or system human
Excerpt: as §1, with “In order to determine the specificity of the binding sites for radiolabelled EGF, IGF-I, somatostatin and bombesin to lung cancer membranes, various structuraly related and unrelated peptides were tested for their ability to inhibit the binding of the tracers. Histological procedure The histological procedures were the same as described previously (Szepeshazi et al., 1991, 1992).” left out

[11] = H69 SCLC xenografts, as compared with control group, RC-160 100 µg, RC-3950-II 20 µg per animal per day s.c. peritumorally, 5 weeks

Substance: [dF]CY[dW]KVCW-NH2 (cysteine pairing not given here) [RC-160, Somatostatin analogue RC-160]
- Ratio of apoptotic to mitotic indices [1]: 2.27 ± 0.5*
- Serum GH levels (in words) ([2]; both experiments, after chronic treatment, vs controls): significantly decreased serum growth hormone and gastrin levels
- Decrease in serum GH levels ([2]; mice treated with RC-160 as compared with control mice): about 48%
- Serum gastrin levels (in words) [3]: significantly decreased serum growth hormone and gastrin levels
- Suppression of DNA synthesis ([4]; "At 0.0 ILg ml-'" RC-160, 5 days of incubation, H69 cells): about 43%
- [3H]thymidine incorporation into DNA of H69 cells (in words) ([4]; RC-160 0.001 to 10.0 µg/ml, 5 days, RC-3005 or RC-3009 5.0 and 25.0 µg/ml, 3 days): significantly inhibited
- [3H]Thymidine incorporation ([4]; 0.001 µg/ml, 5 days, *P<0.05 vs control): 81.6 4.6* per cent of control
- [3H]Thymidine incorporation ([4]; 0.01 µg/ml, 5 days, *P<0.05 vs control): 80.0 4.1* per cent of control
- [3H]Thymidine incorporation ([4]; 0.1 µg/ml, 5 days, **P<0.01 vs control): 71.6 ± 3.4** per cent of control
- Bombesin/GRP maximal binding capacity (Bmax) [5]: 435 fmol mg-'protein
- IGF-I maximal binding capacity (Bmax) [6]: 176 fmol mg' protein
- Reduction in tumour volumes [7, 11]: more than 70%
- Reduction in tumour weights [7, 11]: more than 70%
- Time from which tumour growth was significantly inhibited ([7]; SCLC H69 tumours, P<0.01, from start of the experiment): 14 days
- Tumour volume, final ([7]; Table I, Experiment I (SCLC-H69), 5 weeks s.c. peritumoral, RC-160 100 µg/day, RC-3440, RC-3095, RC-3950-II 20 µg/day per animal, control 249.7 ? 182.3, means ? s.d., ten animals per group, *P<0.05 vs control): 66.0 26.5* (mm)r
- Tumour weight ([7]; Table I, Experiment I (SCLC-H69), 5 weeks s.c. peritumoral, RC-160 100 µg/day, antagonists 20 µg/day per animal, control 0.27 ? 0.19, means ? s.d., *P<0.05 vs control): 0.058 0.04* g
- Tumour doubling time ([7]; Table I, Experiment I (SCLC-H69), 5 weeks, RC-160 100 µg/day, antagonists 20 µg/day per animal s.c., control 7.5): 12.7 days
- Growth of H69 SCLC tumours (in words) ([7]; s.c. peritumorally, RC-160 100 µg, bombesin/GRP antagonists 20 µg per animal per day, 5 weeks): inhibited the growth of H69 SCLC xenografts
- EGF maximal binding capacity (Bmax) ([8]; Table IV, Experiment II (non-SCLC H157), tumour membranes after in vivo treatment, control 249, done once): 100 fmol mg' protein
- EGF binding capacity on H157 tumours (in words) ([8]; after in vivo treatment): decreased
- Growth of H157 non-SCLC tumours (in words) ([9]; 4 weeks s.c., SB-75 100 µg/day per animal, vs control): significantly reduced
- Tumour volume, final ([9]; Table I, Experiment II (non-SCLC H157), 4 weeks s.c. peritumoral, SB-75 100 µg/day per animal, control 1580.3 ? 455.7, means ? s.d., ten animals per group, *P<0.05 vs control): 291.0 207.8* (mm)r
- Tumour weight ([9]; Table I, Experiment II (non-SCLC H157), 4 weeks s.c., SB-75 100 µg/day, control 1.9 ? 0.3, means ? s.d., *P<0.05 vs control): 0.64 0.3* g
- Tumour doubling time ([9]; Table I, Experiment II (non-SCLC H157), 4 weeks s.c., SB-75 100 µg/day, control 3.88): 6.06 days
- EGF maximal binding capacity (Bmax) ([10]; Table IV, Experiment I (SCLC-H69), tumour membranes after in vivo treatment, control 278, ten-point displacement in triplicate tubes, done once): 174 fmol mg' protein
- EGF receptors on H69 tumours (in words) ([10]; after in vivo treatment): down-regulated
